± gives the standard deviation of the averaged measurements.
Experiments:
Settings in all cases: treatment time: 3 days
[1] = test system: UT-SCC-28; assay: relative IC50 (midpoint of the fitted curve; maximal inhibition may be below 50%); higher = less potent
Summary of the method: (§1)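 Three growth formats were used for HPV-negative HNSCC cell lines in 384-well plates at 500 cells/well: bare plastic, wells coated with Matrigel or Myogel (500 µg/mL), and embedding in Matrigel or Myogel plus rat collagen I. Compounds were added at five 10-fold concentrations, and after 3 days CellTiter-Glo 2.0 luminescence was recorded and normalised to vehicle (0.1% DMSO) and cell-killing control wells. IC50, maximal inhibition and drug sensitivity score came from percent-inhibition dose–response fitting in the FIMM pipeline.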

[2] = test system: UT-SCC-40; assay: as above
Summary of the method: as §1

[3] = test system: UT-SCC-106A; assay: as above
Summary of the method: as §1

[4] = test system: UT-SCC-24B; assay: as above
Summary of the method: as §1

[5] = test system: UT-SCC-8; assay: as above
Summary of the method: as §1

[6] = test system: UT-SCC-24A; assay: maximal % inhibition of viability relative to DMSO; higher = stronger effect
Description: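 HNSCC cell lines (500 cells/well, 384-well) were cultured on plastic, on top of (2D) or embedded (3D) in Matrigel or human leiomyoma matrix Myogel (500 ug/mL; Myogel 3D mixed with rat collagen I). Cells were treated for 3 days with 5 ten-fold concentrations of each drug, and viability was read by CellTiter-Glo. Viability was normalised to DMSO (0% inhibition) and 100 uM benzethonium chloride (100% inhibition) controls and fitted with the FIMM DSRT pipeline to give IC50 (nM), maximal % inhibition and the drug sensitivity score (DSS). Suffixes _1/_2/_3 on drug names are replicates.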

[7] = test system: UT-SCC-24A; assay: drug sensitivity score (DSS); higher = more sensitive
Description: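 HNSCC cell lines (500 cells/well, 384-well) were cultured on plastic, on top of (2D) or embedded (3D) in Matrigel or human leiomyoma matrix Myogel (500 ug/mL; Myogel 3D mixed with rat collagen I). Cells were treated for 3 days with 5 ten-fold concentrations of each drug, and viability was read by CellTiter-Glo. Suffixes _1/_2/_3 on drug names are replicates.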

[8] = test system: UT-SCC-44; assay: maximal % inhibition of viability relative to DMSO; higher = stronger effect
Description: (§2)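 HNSCC cell lines (500 cells/well, 384-well) were cultured on plastic, on top of (2D) or embedded (3D) in Matrigel or human leiomyoma matrix Myogel (500 ug/mL; Myogel 3D mixed with rat collagen I). Cells were treated for 3 days with 5 ten-fold concentrations of each drug, and viability was read by CellTiter-Glo. Viability was normalised to DMSO and benzethonium chloride controls and fitted with the FIMM DSRT pipeline to give IC50 (nM), maximal % inhibition and DSS. Suffixes _1/_2/_3 are replicates. Only inhibition-mode (IC50) fits are kept.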

[9] = test system: UT-SCC-28; assay: as above
Description: as §2

[10] = test system: UT-SCC-73; assay: as above
Description: as §2

[11] = test system: UT-SCC-42B; assay: as above
Description: as §2

[12] = test system: UT-SCC-40; assay: as above
Description: as §2

[13] = test system: UT-SCC-42A; assay: as above
Description: as §2

[14] = test system: UT-SCC-81; assay: as above
Description: as §2

[15] = test system: UT-SCC-14; assay: as above
Description: as §2

[16] = test system: UT-SCC-106A; assay: as above
Description: as §2

[17] = test system: UT-SCC-24B; assay: as above
Description: as §2

[18] = test system: UT-SCC-8; assay: as above
Description: as §2

[19] = culture condition: embedded in Matrigel
[20] = culture condition: embedded in Myogel + collagen I
[21] = culture condition: on top of Matrigel
[22] = culture condition: plastic 2D (no matrix)
[23] = culture condition: on top of Myogel

C=CC(=O)Nc1cc2c(Nc3ccc(F)c(Cl)c3)ncnc2cc1OCCCN1CCOCC1 [Canertinib]
relative IC50 [1, 19]: 3420 nM
relative IC50 [1, 20]: 1510 nM
relative IC50 [1, 21]: 1630 nM
relative IC50 [1, 22]: 1760 nM
relative IC50 [2, 19]: 48.9 nM
relative IC50 [2, 20]: 1310 nM
relative IC50 [2, 21]: 65.8 nM
relative IC50 [2, 23]: 1270 nM
relative IC50 [2, 22]: 211 nM
relative IC50 [3, 19]: 319 nM
relative IC50 [3, 20]: 2830 nM
relative IC50 [3, 21]: 171 nM
relative IC50 [3, 23]: 2270 nM
relative IC50 [3, 22]: 126 nM
relative IC50 [4, 19]: 253 nM
relative IC50 [4, 20]: 1530 nM
relative IC50 [4, 21]: 234 nM
relative IC50 [4, 23]: 1580 nM
relative IC50 [4, 22]: 63.1 nM
relative IC50 [5, 19]: 34.9 nM
relative IC50 [5, 20]: 3640 nM
relative IC50 [5, 21]: 35.7 nM
relative IC50 [5, 23]: 912 nM
relative IC50 [5, 22]: 39.3 nM
maximal % inhibition of viability [6, 19]: 99.57 ± 0.38%
maximal % inhibition of viability [6, 20]: 99.17 ± 0.74%
maximal % inhibition of viability [6, 21]: 99.7 ± 0.36%
maximal % inhibition of viability [6, 23]: 99 ± 0.87%
maximal % inhibition of viability [6, 22]: 99.5 ± 0.62%
drug sensitivity score [7, 19]: 27.8 ± 2 DSS
drug sensitivity score [7, 20]: 11 ± 3.6 DSS
drug sensitivity score [7, 21]: 23.5 ± 0.87 DSS
drug sensitivity score [7, 23]: 8.7 ± 0.2 DSS
drug sensitivity score [7, 22]: 23.5 ± 1.5 DSS
maximal % inhibition of viability [8, 19]: 77.5 ± 7%
maximal % inhibition of viability [8, 20]: 92.5 ± 2.4%
maximal % inhibition of viability [8, 21]: 92 ± 3.6%
maximal % inhibition of viability [8, 23]: 95 ± 3.5%
maximal % inhibition of viability [8, 22]: 94.1 ± 3.5%
maximal % inhibition of viability [9, 19]: 82.3 ± 4.4%
maximal % inhibition of viability [9, 20]: 90.8 ± 3.4%
maximal % inhibition of viability [9, 21]: 86.1 ± 2.4%
maximal % inhibition of viability [9, 22]: 80.9 ± 5.2%
maximal % inhibition of viability [10, 19]: 99.5 ± 0.46%
maximal % inhibition of viability [10, 20]: 99.57 ± 0.59%
maximal % inhibition of viability [10, 21]: 99.13 ± 0.78%
maximal % inhibition of viability [10, 23]: 98.9 ± 0.98%
maximal % inhibition of viability [10, 22]: 99.5 ± 0.7%
maximal % inhibition of viability [11, 19]: 99.5 ± 0.36%
maximal % inhibition of viability [11, 21]: 99.87 ± 0.23%
maximal % inhibition of viability [11, 23]: 99.77 ± 0.4%
maximal % inhibition of viability [11, 22]: 99.17 ± 0.74%
maximal % inhibition of viability [12, 19]: 99.5 ± 0.46%
maximal % inhibition of viability [12, 20]: 99.37 ± 0.55%
maximal % inhibition of viability [12, 21]: 99.73 ± 0.38%
maximal % inhibition of viability [12, 23]: 99.63 ± 0.55%
maximal % inhibition of viability [12, 22]: 99.67 ± 0.58%
maximal % inhibition of viability [13, 19]: 96.9 ± 4.2%
maximal % inhibition of viability [13, 20]: 97.4 ± 3.2%
maximal % inhibition of viability [13, 21]: 98.3 ± 1.7%
maximal % inhibition of viability [13, 23]: 98 ± 1.9%
maximal % inhibition of viability [13, 22]: 99.23 ± 0.8%
maximal % inhibition of viability [14, 19]: 99.63 ± 0.4%
maximal % inhibition of viability [14, 20]: 99.77 ± 0.32%
maximal % inhibition of viability [14, 21]: 99.27 ± 0.64%
maximal % inhibition of viability [14, 23]: 99.13 ± 0.75%
maximal % inhibition of viability [14, 22]: 99.77 ± 0.4%
maximal % inhibition of viability [15, 19]: 99.23 ± 0.75%
maximal % inhibition of viability [15, 20]: 98.8 ± 1.1%
maximal % inhibition of viability [15, 21]: 99.7 ± 0.27%
maximal % inhibition of viability [15, 23]: 98.7 ± 1.7%
maximal % inhibition of viability [15, 22]: 98.5 ± 1.4%
maximal % inhibition of viability [16, 19]: 95.6 ± 2%
maximal % inhibition of viability [16, 20]: 95.1 ± 1.2%
maximal % inhibition of viability [16, 21]: 97.3 ± 2.1%
maximal % inhibition of viability [16, 23]: 97.6 ± 1%
maximal % inhibition of viability [16, 22]: 98.83 ± 0.94%
maximal % inhibition of viability [17, 19]: 99.67 ± 0.31%
maximal % inhibition of viability [17, 20]: 99.33 ± 0.61%
maximal % inhibition of viability [17, 21]: 99.83 ± 0.29%
maximal % inhibition of viability [17, 23]: 99.7 ± 0.52%
maximal % inhibition of viability [17, 22]: 99.47 ± 0.46%
maximal % inhibition of viability [18, 19]: 99.83 ± 0.29%
maximal % inhibition of viability [18, 20]: 99 ± 1%
maximal % inhibition of viability [18, 21]: 99.967 ± 0.058%
maximal % inhibition of viability [18, 23]: 99.967 ± 0.058%
maximal % inhibition of viability [18, 22]: 99.37 ± 0.85%

Source: the supplement of paper PMC7017272
